Measured values published in patent publication US7608289B2, “Food supplemented with a carnitine, suitable for stimulating the biosynthesis of polyunsaturated fatty acids from the saturated fatty acids contained in the food” (Sigma-Tau Industrie Farmaceutiche Riunite S.p.A., priority 1999, dated 2009).

Key:
[1] = n-3 and n-6 fatty acids in hepatic phospholipids of rabbits on the diets; type: in vivo, New Zealand male rabbits; conditions: liver specimens, carnitines added to the milk diet
Text: (§1) For these tests a batch of New Zealand male rabbits with a mean body weight of 3.7 kg was used, which, after a period of acclimatisation on a standard diet for eight days, were divided into different groups. One group received standard diet alone, while a second group received unskimmed milk mixed with pellets of the normal diet whose final composition was as follows: 4% fats, 24% proteins, 58% carbohydrates, 0.7% fibre, 10% water, 3% minerals and 1% vitamins. […]
(§2) After four weeks of treatment, blood samples were taken from the marginal vein of the ear and the plasma lipids obtained were subjected to measurement of the percentages of both saturated fatty acids and polyunsaturated fatty acids. The percentage amounts of unsaturated omega-3 fatty acids present in liver samples taken from the same animals were also measured. While total lipids were measured according to the method described by Schanfeld (Schanfeld G., J. Clin. Invest., 226:497, 1957) and Folch (Folch J., J. Biol. Chem., 226:497, 1957), the triglycerides and phospholipids were measured according to the method described by Terstra (Terstra A. H. M., Anal. Biochem., 11:149, 1981) and the n-3 and n-6 fatty acids according to the method described by Nestel (Nestel P. J., Ann. Rev. Nutr., 10:149, 1990) and Cevec (Cevec G., Biochemistry, 30:7:7186, 1991).

[2] = Plasma lipid test: polyunsaturated to saturated fatty acid ratio in rabbits on milk diet plus carnitines; type: in vivo, New Zealand male rabbits; conditions: plasma lipids, carnitines given with milk diet, compared to controls
Text: as §1, §2

| Structure (SMILES) | increase in n-3 fatty acids / improvement of n-3 to n-6 ratio in liver (in words) [1] | change of the ratio of polyunsaturated to saturated fatty acids (in words) [2] |
| --- | --- | --- |
| CCC(=O)O[C@H](CC(=O)[O-])C[N+](C)(C)C [propionyl L-carnitine] | most active compound | particularly evident |
| CC(=O)O[C@H](CC(=O)[O-])C[N+](C)(C)C [acetyl L-carnitine] | – | particularly evident |
